Source: patent US5567684A, “Synthetic ganglioside derivatives” (The Regents of The University of California, priority 1994, dated 1996)
Entries after “also recorded” stand apart in the source; their conditions may differ. Like-named read-outs stand apart in the source and are kept apart here.

Assays:
[1] = test system: normal human peripheral blood mononuclear leukocytes; experiment: cells; format: cell-based
[2] = test system: allogeneic immune response in popliteal lymph node; experiment: In vivo assay of immunosuppressive activity: allogeneic immune response in draining popliteal lymph node after footpad injection; set-up: species or system C3H mice; conditions: for lymph node mass, stimulated / lymph node mass, net increase / lymph node mass, unstimulated: day 4; for lymph node mass, stimulated: left footpad; for lymph node mass, unstimulated: right footpad
Text: In vivo Assay of Immunosuppressive Activity: Footpad injection of the synthetic ganglioside derivatives being studied and of the stimulant of the cellular immune response (allogeneic cells), is subsequently followed by harvest of the popliteal node and assessment of the node size, cell number, specific proliferation response and generation of specific cytotoxicity.
Mice: C3H (H-2^K) and BALB/c (H-2^d) mice are obtained at 6 weeks of age and used in these experiments at 7-12 weeks of age. The animals are murine virus free strains purchased from Charles River, Wilmington, Mass.
Preparation of stimulator cells: Spleens are removed aseptically and immediately placed in murine complete media [RPMI 1640 w/o L-glutamine (Whittaker Bioproducts, Walkersville, Md.) supplemented with 10% FCS; 1% of MEM non-essential amino acids (Cellgro), sodium pyruvate, L-glutamine, Penicillin 50 U/ml/Streptomycin 50 μg/ml and 10 mM Hepes Buffer (Whittaker Bioproducts)] then transferred to a 60×10 mm petri dish. A sterile single cell suspension is prepared by gently pressing the spleen onto a cell dissociation sieve (Sigma). Mononuclear cells are isolated by Ficoll-Hypaque density gradient separation, followed by lysis of erythrocytes (ACK lysing buffer pH 7.4). The cells are washed and their viability determined by trypan blue exclusion. Allogeneic (BALB/c) splenocytes are diluted to the appropriate concentration in saline and are injected into the footpad of C3H mice together with the synthetic ganglioside derivatives to be tested.
Preparation of synthetic ganglioside derivatives: Synthetic ganglioside derivatives are aliquoted in HPLC-grade chloroform:methanol (1:1), and dried in glass microvials. The synthetic ganglioside derivatives are then resuspended for injection in 0.9% NaCl, sonicated for 2 min in a Branson water bath sonicator.
Injections: Spleen cells or tumor cells and the synthetic ganglioside derivatives being studied are injected into the left hind footpad in a total volume of 30 μl.
Isolation of popliteal lymph nodes: Primed animals are killed by cervical dislocation on day 4, the popliteal lymph node draining the left and right footpads are removed aseptically, trimmed free of excess fat, weighted and placed on ice in tubes containing tissue culture medium. The nodes are then teased with a flat end of a 3 ml syringe to obtain a single cell suspension, which is washed in complete murine media containing 0.1% 2mercaptoethanol (Gibco, New York). The cells are then quantified and their viability determined by trypan blue exclusion. The cell concentration is adjusted to 2×10^6 cells/ml.
Cell cultures: 2×10^5 lymph node cells in 100 μl are cultured for 18 hours in complete medium with 0.5 μC ^3 H-thymidine incorporation quantified by β-scintillation counting as a measure of in vivo lymphocyte activation (50).
In this model, the immune response in a local microenvironment directed against allogeneic cells is assessed. Allogeneic (C3H mice) spleen cells were injected into the footpad of BALB/c mice and the draining popliteal lymph nodes were removed from the sacrificed mice four days later.

[3] = Homo sapiens, Leukocyte, 2.5 μM, read-out: Inhibition
[4] = Homo sapiens, Leukocyte, 5.0 μM, read-out: Inhibition
[5] = Table 1, mean ± SD of five mice, GM3 n=1 10 nmol coinjected, cyclosporin A 24 mg/kg/dose i.p. × 4 doses
[6] = Table 2, mean ± SD of five mice, dialkyl GM3 11 μg coinjected, CSA 24 mg/kg/day i.p. × 4 days
[7] = Table 4, mean ± SD of five mice, ganglioside 10 nmol coinjected, CSA 24 mg/kg/dose i.p. × 4 doses
[8] = Homo sapiens, Leukocyte, read-out: inhibition of human lymphoproliferation

**Q.** How did the “[^3 H] Thymidine Uptake” value ([1]; 2.5 μM) turn out when `CCCCCCCCCCCCCC=CC(O)C(COC1OC(CO)C(OC2OC(CO)C(O)C(OC3(C(=O)O)CC(O)C(NC(C)=O)C(C(O)C(O)CO)O3)C2O)C(O)C1O)NC(=O)CCCCCCCCCCCCC` (stereo not drawn) [GM3 d18:1-C14:0] was run?
**A.** The value was 4.6 CPM × 10^-3.

**Q.** And the “[^3 H] Thymidine Uptake” value ([1]; 5.0 μM)?
**A.** Its value is 0.8 CPM × 10^-3.

**Q.** And the inhibition at 2.5 µM [1, 3]?
**A.** Its inhibition at 2.5 µM is 53%.

**Q.** And the inhibition at 5 µM [1, 4]?
**A.** The inhibition at 5 µM was 92%.

**Q.** For `CCCCCCCCCCCCCC=CC(O)C(COC1OC(CO)C(OC2OC(CO)C(O)C(OC3(C(=O)O)CC(O)C(NC(C)=O)C(C(O)C(O)CO)O3)C2O)C(O)C1O)NC(C)=O` (stereo not drawn) [GM3 n=1], which “[^3 H]thymidine uptake (spontaneous lymphoproliferation)” value ([2]; Table 1, 2 × 10^5 cells/well, mean ± SD of three cultures) is on record?
**A.** Its value is 329 ± 18 cpm.

**Q.** What about the “lymphocytes (total mononuclear leukocytes recovered from five stimulated popliteal lymph nodes)” value ([2]; Table 1, GM3 n=1 10 nmol, cyclosporin A 24 mg/kg/dose i.p. × 4 doses) of the same compound?
**A.** Its value is 1.03 × 10^7.

**Q.** And the “lymph node mass, stimulated” value [2, 5]?
**A.** Its value is 1.84 ± 0.30 mg.

**Q.** What about the “lymph node mass, net increase” value [2, 5] of the same compound?
**A.** Its value is 0.56 ± 0.36 mg.

**Q.** What about the “lymph node mass, unstimulated” value [2, 5] of the same compound?
**A.** Its value is 1.29 ± 0.24 mg.

**Q.** And the “P, difference in net increase of popliteal nodes between control and GM3 n = 1 treated groups” value ([2]; Table 1 footnote)?
**A.** The value was less than 0.01.

**Q.** What about the “in vivo immunosuppressive activity compared with mixed human brain gangliosides” value ([2]; mouse, in vivo) of the same compound?
**A.** The value was “much more active than the mixed brain gangliosides”.

**Q.** What about the “in vivo immunosuppressive activity compared with cyclosporin A” value ([2]; single dose of GM3 n=1, Table 1) of the same compound?
**A.** Its value is “almost as immunosuppressive as systemically administered cyclosporin A”.

**Q.** What about the “immunosuppressive activity compared with lyso GM3 (n=-1)” value [1] of the same compound?
**A.** The value was “higher degree of immunosuppressive activity”.

**Q.** And the “immunosuppressive activity compared with n = 17 or 23” value [1]?
**A.** The value was “greater immunosuppressive activity than glycosphingolipids wherein n is 17 or 23”.

**Q.** And the “relative immunosuppressive activity (inhibition of human lymphoproliferative response)” value ([1]; 5 μM)?
**A.** The value was “highest immunosuppressive activity”.

**Q.** What about the IC50 ([1]; Homo sapiens, Leukocyte, read-out: ID50, inhibition of the human lymphoproliferative response) of the same compound?
**A.** The IC50 was 0.2 nM.

**Q.** How did the “[^3 H]thymidine uptake (spontaneous lymphoproliferation)” value [2] turn out when `CCCCCCCCCCCCCCC(CCCCCCCCCCCCCC)COC1OC(CO)C(OC2OC(CO)C(O)C(OC3(C(=O)O)CC(O)C(NC(C)=O)C(C(O)C(O)CO)O3)C2O)C(O)C1O` [dialkyl GM3, 2-(Tetradecylhexadecyl) O-(5-acetamido-3,5-dideoxy-D-glycero-D-galacto-2-nonulopyranosylonic acid)-(2→3)-O-β-D-galactopyranosyl-(1→4)-β-D-glucopyranoside] was run?
**A.** The value was 317 ± 45 cpm.

**Q.** And the “[^3 H]thymidine uptake relative to control group” value ([2]; 2×10^5 cells)?
**A.** The value was 20%.

**Q.** What about the “[^3 H]thymidine uptake (spontaneous lymphoproliferation)” value ([2]; Table 2, 0.5 × 10^5 cells, mean ± SEM of three cultures) of the same compound?
**A.** The value was 107 ± 29 cpm.

**Q.** What about the “[^3 H]thymidine uptake (spontaneous lymphoproliferation)” value ([2]; Table 2, 1 × 10^5 cells, mean ± SEM of three cultures) of the same compound?
**A.** Its value is 152 ± 15 cpm.

**Q.** What about the “lymph node mass, net increase” value ([2]; Table 2, dialkyl GM3 11 μg coinjected, CSA 24 mg/kg/day i.p. × 4 days) of the same compound?
**A.** Its value is 0.45 mg.

**Q.** What about the “lymph node mass, stimulated” value [2, 6] of the same compound?
**A.** Its value is 1.86 ± 0.25 mg.

**Q.** And the “lymph node mass, unstimulated” value [2, 6]?
**A.** The value was 1.41 ± 0.17 mg.

**Q.** And the “lymphocytes (total mononuclear leukocytes recovered from five stimulated popliteal lymph nodes)” value ([2]; Table 2, dialkyl GM3 11 μg, CSA 24 mg/kg/day i.p. × 4 days)?
**A.** The value was 0.83 ×10^7.

**Q.** What about the “suppression of the immune response / proliferation, in words” value ([2]; Table 2, three cell densities for proliferation) of the same compound?
**A.** The value was “marked suppression of the immune response; also recorded: markedly suppresses the proliferation”.

**Q.** And the “lymphocyte number as fraction of control group” value ([2]; control group 2.3×10^7 cells)?
**A.** Its value is ≤ 1/3.

**Q.** What about the “net increase of lymph node mass” value ([2]; dialkyl GM3 10 nmol or 11 μg/mouse coinjected, cyclosporin A systemic) of the same compound?
**A.** Its value is 0.45 mg.

**Q.** And the “lymphocyte (mononuclear-leukocyte) number” value ([2]; five nodes from five mice)?
**A.** Its value is 0.8 ×10^7.

**Q.** What about the “immunosuppressive activity in vitro, in words” value [1] of the same compound?
**A.** Its value is “marked immunosuppressive activity; also recorded: higher degree of inhibition of dialkyl GM3 than that of GM3 is readily observed”.

**Q.** And the “potency relative to GM3 d18:1-C18:0” value [1]?
**A.** Its value is “four-fold”.

**Q.** And the “[^3 H] Thymidine Uptake” value ([1]; 2.5 μM)?
**A.** Its value is 0.7 CPM × 10^-3.

**Q.** What about the “[^3 H] Thymidine Uptake” value ([1]; 5.0 μM) of the same compound?
**A.** Its value is 0.3 CPM × 10^-3.

**Q.** And the IC50 ([1]; Homo sapiens, Leukocyte, 0-10 μM, read-out: ID50, inhibition of human lymphoproliferation)?
**A.** Its IC50 is 200 nM.

**Q.** And the inhibition at 2.5 µM [1, 3]?
**A.** The inhibition at 2.5 µM was 93%.

**Q.** And the inhibition at 5 µM [1, 4]?
**A.** Its inhibition at 5 µM is 97%.

**Q.** And the IC90 ([1]; Homo sapiens, Leukocyte, read-out: concentration at which 90% inhibition was observed, 0-20 μM)?
**A.** The IC90 was less than 7000 nM.

**Q.** What does the source list for `CCCCCCCCCCCCCC=CC(O)C(COC1(C(=O)O)CC(O)C(NC(C)=O)C(C(O)C(O)CO)O1)NC(=O)CCCCCCCCCCCCCCCCC` [αGM5, (2S,3R,4E)-1-O-(5-acetamido-3,5-dideoxy-D-glycero-α- and β-D-galacto-f2-nonulopyranosylonicacid)-2-octadecanamido-4-octadecene-1,3-diol]?
**A.** lymph node mass, net increase ([2]; Table 4, ganglioside 10 nmol coinjected, CSA 24 mg/kg/dose i.p. × 4 doses): 0.58 mg; lymph node mass, stimulated [2, 7]: 1.40 ± 0.22 mg; lymph node mass, unstimulated [2, 7]: 0.82 ± 0.26 mg; in vivo immunosuppression, in words ([2]; αGM5, compared to systemically administered cyclosporin A, Table 4): highly immunosuppressive in vivo; reduction in cellular immune response (increase in lymph mass caused by in vivo allostimulation) ([2]; αGM5, Table 4): 2/3; immunosuppressive activity in vitro, in words [1]: potent immunosuppressive agents; [^3 H] Thymidine Uptake ([1]; 2.5 μM): 0.1 CPM × 10^-3; [^3 H] Thymidine Uptake ([1]; 5.0 μM): 0.1 CPM × 10^-3; inhibition at 2.5 µM [1, 3]: 99%; inhibition at 5 µM [1, 4]: 99%; IC90 ([1]; Homo sapiens, Leukocyte, read-out: ID90): ~2500 nM; inhibition at 0.0025 µM [1, 8]: 99%; inhibition at 0.005 µM [1, 8]: 99%

**Q.** How did the “immunosuppressive activity in vitro, in words” value [1] turn out when `CCCCCCCCCCCCCC=CC(O)C(COC1(C(=O)O)CC(O)C(NC(C)=O)C(C(O)C(O)CO)O1)NC(=O)CCCCCCCCCCCCCCCCC` [βGM5, (2S,3R,4E)-1-O-(5-acetamido-3,5-dideoxy-D-glycero-α- and β-D-galacto-f2-nonulopyranosylonicacid)-2-octadecanamido-4-octadecene-1,3-diol] was run?
**A.** Its value is “potent immunosuppressive agents”.

**Q.** What about the “[^3 H] Thymidine Uptake” value ([1]; 2.5 μM) of the same compound?
**A.** Its value is 1.4 CPM × 10^-3.

**Q.** What about the “[^3 H] Thymidine Uptake” value ([1]; 5.0 μM) of the same compound?
**A.** Its value is 0.3 CPM × 10^-3.

**Q.** What about the inhibition at 2.5 µM [1, 8] of the same compound?
**A.** Its inhibition at 2.5 µM is 86%.

**Q.** What about the inhibition at 5 µM [1, 8] of the same compound?
**A.** The inhibition at 5 µM was 97%.
